Data taken from US7101886B2, “Phenylalkyl and pyridylalkyl piperazine derivatives” (Warner Lambert Company, priority 2002, dated 2006).

Key:
dopamine D2 receptor = molecular target: T1, dopamine D2 receptor (Homo sapiens, UniProt P14416); test: Dopamine D2 receptor binding ([3H]spiperone radioligand binding); conditions: [3H]spiperone binding, membrane preparation from CHO-hD2L cells
T1 construct: expressed in transfected cells; host or cells: CHO cells (CHO-hD2L), membrane preparation
Description: (§1) The ability of the compounds of this invention to bind to the dopamine D2 and serotonin 2A (5HT2A) receptors can be determined using conventional radioligand receptor binding assays. All receptors can be heterologously expressed in cell lines and experiments conducted in membrane preparations from the cell lines using procedures outlined below. IC50 concentrations can be determined by nonlinear regression of concentration-dependent reduction in specific binding. The Cheng-Prussoff equation can be used to convert the IC50 to Ki concentrations.
Dopamine D2 Receptor Binding:
[^3H]Spiperone binding to a membrane preparation from CHO-hD2L cells is carried out in 250 μl of 50 mM Tris-HCl buffer containing 100 mM NaCl, 1 mM MgCl2 and 1% DMSO at pH 7.4. Duplicate samples containing (in order of addition) the test compounds, 0.4 nM [^3H]spiperone and approximately 12 μg protein are incubated for 120 minutes at room temperature. Bound radioligand is separated by rapid filtration under reduced pressure through Whatman GF/B glass fiber filters previously treated with 0.3% polyethyleneimine. Radioactivity retained on the filter is determined by liquid scintillation spectrophotometry.
The title compounds of Examples 1–524 were tested using the above assay, in which specific binding determined in the presence of 1 mM haloperidol was 95%.

[1] = molecular target: T2, serotonin 2A (5HT2A) receptor (Homo sapiens, UniProt P28223); test: Serotonin 2A binding ([3H]ketanserin radioligand binding); conditions: [3H]ketanserin binding, Swiss-h5HT2A cell membranes
T2 construct: expressed in transfected cells; host or cells: Swiss cells (Swiss-h5HT2A)
Description: as §1
[^3H] Ketanserin binding to Swiss-h5HT2A cell membranes can be carried out in 250 μl of 50 mM Tris-HCl buffer pH 7.4. Duplicate samples containing (in order of addition) test compounds, 1.0 nM [^3H]ketanserin, and approximately 75 μg protein are incubated for 120 minutes at room temperature. Bound radioligand is separated by rapid filtration under reduced pressure through Whatman GF/B glass fiber filters previously treated with 0.3% polyethyleneimine. Radioactivity retained on the filter is determined by liquid scintillation spectrophotometry.
The title compounds of Examples 1–524 were tested using the above assay, in which specific binding determined in the presence of 1 mM ketanserin was 90%.

T1 sequence (P14416 whole entry): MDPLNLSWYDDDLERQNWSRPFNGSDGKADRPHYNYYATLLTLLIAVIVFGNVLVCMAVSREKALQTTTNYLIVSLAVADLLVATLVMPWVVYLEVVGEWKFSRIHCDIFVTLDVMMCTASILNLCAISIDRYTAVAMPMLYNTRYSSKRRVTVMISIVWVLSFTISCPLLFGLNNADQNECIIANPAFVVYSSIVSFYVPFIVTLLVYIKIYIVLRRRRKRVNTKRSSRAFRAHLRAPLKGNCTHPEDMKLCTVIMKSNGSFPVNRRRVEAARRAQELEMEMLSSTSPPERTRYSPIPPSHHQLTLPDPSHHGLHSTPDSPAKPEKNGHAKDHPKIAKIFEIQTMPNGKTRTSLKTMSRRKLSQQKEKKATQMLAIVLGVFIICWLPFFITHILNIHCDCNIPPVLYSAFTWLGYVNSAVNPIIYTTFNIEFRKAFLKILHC
T2 sequence (P28223 whole entry): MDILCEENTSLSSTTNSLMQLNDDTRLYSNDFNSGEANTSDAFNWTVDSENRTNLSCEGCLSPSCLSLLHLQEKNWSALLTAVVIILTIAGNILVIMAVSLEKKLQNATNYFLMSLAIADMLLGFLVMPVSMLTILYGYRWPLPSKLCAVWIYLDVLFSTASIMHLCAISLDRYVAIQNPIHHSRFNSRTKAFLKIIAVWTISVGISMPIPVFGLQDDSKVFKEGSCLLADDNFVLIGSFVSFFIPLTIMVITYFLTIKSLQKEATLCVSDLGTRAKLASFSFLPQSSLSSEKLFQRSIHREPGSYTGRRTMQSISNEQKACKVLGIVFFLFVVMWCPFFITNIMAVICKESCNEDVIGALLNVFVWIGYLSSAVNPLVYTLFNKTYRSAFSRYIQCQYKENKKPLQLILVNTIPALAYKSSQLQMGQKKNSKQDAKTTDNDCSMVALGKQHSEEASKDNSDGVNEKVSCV

Row | SMILES | melting point [°C] | Ki (dopamine D2 receptor) [nM] | Ki [1] [nM]
1 | O=C(Cc1cccs1)Nc1ccc(OCCN2CCN(c3nsc4ccccc34)CC2)cc1 | 142 |  | 
2 | CC(=O)OC(C)C(=O)Nc1ccc(OCCN2CCN(c3nsc4ccccc34)CC2)cc1 (centres unmarked) | 90 |  | 
3 | Cc1nn(C)c(Cl)c1S(=O)(=O)Nc1ccc(OCCN2CCN(c3nsc4ccccc34)CC2)cc1 | 85 |  | 
4 | CC(=O)Nc1ccc(S(=O)(=O)Nc2ccc(OCCN3CCN(c4nsc5ccccc45)CC3)cc2)cc1 | 120 |  | 
5 | COc1cc(CCN2CCN(c3nsc4ccccc34)CC2)c(NC(C)=O)cc1OC | 120 |  | 
6 | COc1cc(CCN2CCN(c3nsc4ccccc34)CC2)c(NC(=O)Cc2cccs2)cc1OC | 135 |  | 
7 | COc1cc(CCN2CCN(c3nsc4ccccc34)CC2)c(NC(=O)Cc2ccccc2)cc1OC | 142 |  | 
8 | COc1cc(CCN2CCN(c3nsc4ccccc34)CC2)c(NS(=O)(=O)c2c(C)nn(C)c2C)cc1OC | 196 |  | 
9 | COc1cc(CCN2CCN(c3nsc4ccccc34)CC2)c(NC(=O)Nc2c(C)cccc2C)cc1OC | 96 |  | 
10 | COc1ccc(OC)c(S(=O)(=O)Nc2ccc(OCCN3CCN(c4nsc5ccccc45)CC3)cc2)c1 [Example 46, N-{4-[2-(4-1,2-BENZISOTHIAZOL-3-YL-PIPERAZIN-1-YL)-ETHOXY]-PHENYL}-2,5-DIMETHOXY-BENZENESULFONAMIDE] | 78 |  | 
11 | O=S(=O)(Nc1ccc(OCCN2CCN(c3nsc4ccccc34)CC2)cc1)c1ccccc1 [Example 47, N-{4-[2-(4-1,2-BENZISOTHIAZOL-3-YL-PIPERAZIN-1-YL)-ETHOXY]-PHENYL}-BENZENESULFONAMIDE] | 65 |  | 
12 | CC(C)=CC(=O)Nc1ccccc1CCN1CCN(c2nsc3ccccc23)CC1 [Example 50, 3-METHYL-BUT-2-ENOIC ACID {2-[2-(4-1,2-BENZISOTHIAZOL-3-YL-PIPERAZIN-1-YL)-ETHYL]-PHENYL}-AMIDE] | 52 |  | 
13 | COc1cc(CCN2CCN(c3nsc4ccccc34)CC2)c(NS(=O)(=O)c2ccccc2F)cc1OC [Example 56, N-{2-[2-(4-1,2-BENZISOTHIAZOL-3-YL-PIPERAZIN-1-YL)-ETHYL]-4,5-DIMETHOXY-PHENYL}-2-FLUORO-BENZENESULFONAMIDE] | 167 |  | 
14 | COc1cc(CCN2CCN(c3nsc4ccccc34)CC2)c(NC(=O)C=C(C)C)cc1OC [Example 65, 3-M ETHYL-BUT-2-ENOIC ACID {2-[2-(4-1,2-BENZISOTHIAZOL-3-YL-PIPERAZIN-1-YL)-ETHYL]-4,5-DIMETHOXY-PHENYL}-AMIDE] | 58 |  | 
15 | Cc1cc(C(=O)Nc2ccc(CCN3CCN(c4nsc5ccccc45)CC3)cc2)n(C)n1 [Example 102, 2,5-DIMETHYL-2H-PYRAZOLE-3-CARBOXYLIC ACID {4-[2-(4-1,2-BENZISOTHIAZOL-3-YL-PIPERAZIN-1-YL)-ETHYL]-PHENYL}-AMIDE] |  | 8.2 | 0.25
16 | O=C1c2ccccc2CN1c1ccc(CCN2CCN(c3nsc4ccccc34)CC2)cc1 [Example 527, 2-{4-[2-(4-BENZO[D]ISOTHIAZOL-3-YL-PIPERAZIN-1-YL)-ETHYL]-PHENYL}-2,3-DIHYDRO-ISOINDOL-1-ONE] | 175.9 |  | 
17 | O=C1c2ccccc2CN1c1cccc(CCN2CCN(c3nsc4ccccc34)CC2)c1 [Example 528, 2-{3-[2-(4-BENZO[D]ISOTHIAZOL-3-YL-PIPERAZIN-1-YL)-ETHYL]-PHENYL}-2,3-DIHYDRO-ISOINDOL-1-ONE] | 154.5 to 155.3 |  | 

Further lines, results first:

Row | melting point [°C] | Ki (dopamine D2 receptor) [nM] | Ki [1] [nM] | SMILES
18 | 227 |  |  | Cc1nc(S(=O)(=O)Nc2ccc(OCCN3CCN(c4nsc5ccccc45)CC3)cc2)cn1C
19 | 152 |  |  | COc1cc(CCN2CCN(c3nsc4ccccc34)CC2)c(NC(=O)Cc2ccc(Cl)cc2)cc1OC
20 | 233 |  |  | COc1cc(CCN2CCN(c3nsc4ccccc34)CC2)c(NS(=O)(=O)c2cn(C)c(C)n2)cc1OC
21 |  | 6.32 | 1.46 | Cc1cc(C(=O)Nc2ccc(CCN3CCN(c4nsc5ccccc45)CC3)cc2)c(C)o1 [Example 27, 2,5-DIMETHYL-FURAN-3-CARBOXYLIC ACID {4-[2-(4-1,2-BENZISOTHIAZOL-3-YL-PIPERAZIN-1-YL)-ETHYL]-PHENYL}-AMIDE]
22 | 176 |  |  | Cn1cnc(S(=O)(=O)Nc2ccc(OCCN3CCN(c4nsc5ccccc45)CC3)cc2)c1 [Example 44, 1-METHYL-1H-IMIDAZOLE-4-SULFONIC ACID {4-[2-(4-1,2-BENZISOTHIAZOL-3-YL-PIPERAZIN-1-YL)-ETHOXY]-PHENYL}-AMIDE]
23 | 187 |  |  | COc1cc(CCN2CCN(c3nsc4ccccc34)CC2)c(NS(=O)(=O)c2ccccc2C)cc1OC [Example 58, N-{2-[2-(4-1,2-BENZISOTHIAZOL-3-YL-PIPERAZIN-1-YL)-ETHYL]-4,5-DIMETHOXY-PHENYL}-2-METHYL-BENZENESULFONAMIDE]
24 | 211 |  |  | COc1cc(CCN2CCN(c3nsc4ccccc34)CC2)c(NC(=O)Nc2ccc(F)cc2)cc1OC [Example 62, 1-{2-[2-(4-1,2-BENZISOTHIAZOL-3-YL-PIPERAZIN-1-YL)-ETHYL]-4,5-DIMETHOXY-PHENYL}-3-(4-FLUORO-PHENYL)-UREA]
25 | 156 |  |  | COc1cc(CCN2CCN(c3nsc4ccccc34)CC2)c(NC(=O)NC2CCCCC2)cc1OC [Example 63, 1-{2-[2-(4-1,2-BENZISOTHIAZOL-3-YL-PIPERAZIN-1-YL)-ETHYL]-4,5-DIMETHOXY-PHENYL}-3-CYCLOHEXYL-UREA]
26 | 175 |  |  | CC(C)=CC(=O)Nc1ccc(F)cc1CCN1CCN(c2nsc3ccccc23)CC1 [Example 64, 3-METHYL-BUT-2-ENOIC ACID {2-[2-(4-1,2-BENZISOTHIAZOL-3-YL-PIPERAZIN-1-YL)-ETHYL]-4-FLUORO-PHENYL}-AMIDE]
27 |  | 8.58 | 0.29 | COc1cccc(S(=O)(=O)Nc2ccc(CCN3CCN(c4nsc5ccccc45)CC3)cc2)c1 [Example 364, N-{4-[2-(4-1,2-BENZISOTHIAZOL-3-YL-PIPERAZIN-1-YL)-ETHYL]-PHENYL}-3-METHOXY-BENZENESULFONAMIDE]
28 | 207.6 to 208 |  |  | O=C1c2ccccc2CN1c1ccccc1CCN1CCN(c2nsc3ccccc23)CC1 [Example 529, 2-{2-[2-(4-BENZO[D]ISOTHIAZOL-3-YL-PIPERAZIN-1-YL)-ETHYL]-PHENYL}-2,3-DIHYDRO-ISOINDOL-1-ONE]
29 | 166.4 to 166.6 |  |  | O=C1c2ccccc2CN1c1ccc(OCCN2CCN(c3nsc4ccccc34)CC2)cc1 [Example 530, 2-{4-[2-(4-BENZO[D]ISOTHIAZOL-3-YL-PIPERAZIN-1-YL)-ETHOXY]-PHENYL}-2,3-DIHYDRO-ISOINDOL-1-ONE]
